Measurements: PMC9466600 (ACS Medicinal Chemistry Letters, 2022)

How the values were obtained:
[1] = biological target: m^6A reader domain of YTHDF2 (Homo sapiens, UniProt Q9Y5A9); settings: for Potency/affinity for YTHDF2 (in words): HTRF, comparison within Table 1
[2] = prevented HTRF measurement
[3] = biological target: reader domain of YTHDF1 (Homo sapiens, UniProt Q9BYJ9); settings: from residual signal at 1 mM, Table S1
[4] = biological target: reader domain of YTHDF3 (Homo sapiens, UniProt Q7Z739); settings: from residual signal at 1 mM, Table S1
reader domain of YTHDF3, sequence (Q7Z739 391-585): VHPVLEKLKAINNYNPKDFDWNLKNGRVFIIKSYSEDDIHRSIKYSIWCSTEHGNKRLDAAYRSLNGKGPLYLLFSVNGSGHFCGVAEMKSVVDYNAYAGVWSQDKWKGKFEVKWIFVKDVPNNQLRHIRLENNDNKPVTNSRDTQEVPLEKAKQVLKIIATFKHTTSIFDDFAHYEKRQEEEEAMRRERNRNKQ

m^6A reader domain of YTHDF2, sequence (Q9Y5A9 383-579): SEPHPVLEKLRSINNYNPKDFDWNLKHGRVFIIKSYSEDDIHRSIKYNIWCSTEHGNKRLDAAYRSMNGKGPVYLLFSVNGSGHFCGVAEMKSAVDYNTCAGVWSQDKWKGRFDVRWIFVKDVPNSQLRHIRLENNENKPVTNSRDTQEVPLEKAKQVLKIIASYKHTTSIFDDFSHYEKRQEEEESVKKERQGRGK
reader domain of YTHDF1, sequence (Q9BYJ9 361-559): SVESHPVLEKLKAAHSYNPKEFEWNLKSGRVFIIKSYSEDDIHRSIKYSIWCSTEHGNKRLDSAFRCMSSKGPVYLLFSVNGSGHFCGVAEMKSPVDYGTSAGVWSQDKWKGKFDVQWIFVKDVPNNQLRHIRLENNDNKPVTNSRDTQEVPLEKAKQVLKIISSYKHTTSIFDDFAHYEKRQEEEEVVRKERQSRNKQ

Row | SMILES | Potency/affinity for YTHDF2 (in words) [1] | further results
1 | CNc1ncnc2c(-c3ccccc3)[nH]nc12 [Compound 7] | – | Selectivity for YTHDF2 against YTHDF1 and YTHDF3 (in words) ([1]; from residual signal at 1 mM, Table S1): modest selectivity
2 | CNc1nc(NC)c2ncn(C)c2n1 [Compound 3] | – | Solubility (in words) [2]: poor solubility
3 | O=c1cc(C2CC2)[nH]c(=O)[nH]1 [Compound 11, 6-cyclopropyluracil] | substantially higher | Ligand efficiency ([1]; calculated from YTHDF2 IC50): 0.47 kcal mol^–1 per non-hydrogen atom
4 | CNc1ncnc2c(C)[nH]nc12 [Compound 5] | – | Affinity for YTHDF1 (in words) [3]: weak affinity; Affinity for YTHDF3 (in words) [4]: weak affinity
5 | CNc1ncnc2c1ncn2[C@@H]1O[C@H](CO)[C@@H](O)[C@H]1O [m^6A, N6-methyladenosine, reference compound] | not able to reduce the emitted signal even at high concentrations | –
6 | Cc1[nH]nc2c(NC3CC3)ncnc12 [Compound 6] | lower than the one observed for its parent compound 5 | –
7 | CNc1ncnc2c(Br)[nH]nc12 [Compound 8] | nor any improvement in potency with respect to the methyl of 5 | –
8 | COc1cc(=O)[nH]c(=O)[nH]1 [Compound 10, 6-methoxyuracil] | does not provide higher affinity | –
